Assay results published in patent publication US11896560B2, “Cannabinoid dosing regime for dermatitis and inflammatory skin conditions” (Botanix Pharmaceuticals LTD, priority 2018, dated 2024).

Experiments:
[1] = Skin permeation of CBD formulation in Franz-type diffusion cell; type: in vitro ADME
Protocol: Dermatomed skin from a single donor was mounted in a Franz-type diffusion cell (0.55 cm^2 receptor fluid exposure surface area) and dosed with 5 ul of CBD formulated in an mixture of a volatile solvent (hexylmethyldisiloxane/polymethylsiloxane—93% w/w), and residual solvent (arlamol E—2% w/w) at a concentration of 5.0% (w/w; 35.5 mg/ml). Following dosing, receptor phase samples were collected at 4, 10, 24 and 48 hours; after which the study was terminated.
The residual formulation was removed by tape stripping and the epidermis and dermis separated by blunt dissection. The levels of CBD in the epidermis, dermis, and receptor fluid samples were then analyzed using a bioanalytical method with LC-MS/MS detection.

[2] = target: human vanilloid receptor type 1 (VR1) (Homo sapiens, UniProt Q8NER1); conditions: in vitro; cited from earlier work
human vanilloid receptor type 1 (VR1), sequence (Q8NER1 whole entry): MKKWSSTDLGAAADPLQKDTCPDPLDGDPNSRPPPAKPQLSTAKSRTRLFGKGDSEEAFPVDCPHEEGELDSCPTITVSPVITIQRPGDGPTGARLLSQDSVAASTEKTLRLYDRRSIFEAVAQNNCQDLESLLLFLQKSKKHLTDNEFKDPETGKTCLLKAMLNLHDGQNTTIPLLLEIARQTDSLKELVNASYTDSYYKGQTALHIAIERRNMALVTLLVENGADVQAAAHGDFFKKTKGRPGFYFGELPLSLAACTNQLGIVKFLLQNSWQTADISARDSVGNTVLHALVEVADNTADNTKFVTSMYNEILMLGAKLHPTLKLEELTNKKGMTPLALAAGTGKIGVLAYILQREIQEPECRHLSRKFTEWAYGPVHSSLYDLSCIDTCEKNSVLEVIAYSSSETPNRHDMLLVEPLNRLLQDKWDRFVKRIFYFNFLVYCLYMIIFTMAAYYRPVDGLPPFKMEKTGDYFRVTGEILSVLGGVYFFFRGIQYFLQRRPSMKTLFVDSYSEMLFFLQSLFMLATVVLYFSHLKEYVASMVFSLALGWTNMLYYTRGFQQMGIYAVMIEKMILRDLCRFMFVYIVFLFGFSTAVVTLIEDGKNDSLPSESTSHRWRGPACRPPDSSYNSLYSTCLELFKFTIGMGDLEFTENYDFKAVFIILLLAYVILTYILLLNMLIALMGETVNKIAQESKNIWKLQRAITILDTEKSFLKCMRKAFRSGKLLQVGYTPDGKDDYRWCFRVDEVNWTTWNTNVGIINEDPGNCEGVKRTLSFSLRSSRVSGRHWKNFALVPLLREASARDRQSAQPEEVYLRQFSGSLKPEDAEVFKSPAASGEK

anandamide = conditions: in vitro; cited from earlier work
sensitized guinea-pigs = conditions: intravenous administration; cited from earlier work
rats = conditions: injected into rats; cited from earlier work
[3] = 5.0% w/w CBD formulation, 48-hour period
[4] = 5 ul of 5.0% w/w CBD formulation, over the 48-hour exposure period
[5] = following application of CBD mixture, 48 hours

C=C(C)C1CCC(C)=CC1c1c(O)cc(CCCCC)cc1O (centres unmarked) [CBD, 2-[3-methyl-6-(1-methylethenyl)-2-cyclohexen-1-yl]-5-pentyl-1,3-benzenediol]
dermal deposition of CBD [1, 3]: 4.54 % of the applied dose | epidermal deposition of CBD [1, 3]: 13.17 % of the applied dose | CBD in the receptor phase (skin permeation), amount per area [1, 4]: < 278 ng/cm^2 | CBD in the receptor phase (skin permeation), percent of applied dose [1, 4]: less than 0.081% | dermis concentration per area [1, 5]: 8,408 ng/cm^2 | dermis concentration per tissue weight [1, 5]: 1,933 ng/g of tissue | dermis concentration per volume [1, 5]: ~1,933 ng/mL | effect on human vanilloid receptor type 1 (VR1) [2]: stimulate | effect on anandamide (anandamide): inhibit | effect on airway obstruction (sensitized guinea-pigs): reduced airway obstruction | effect on cardiac inflammation (rats): attenuated cardiac inflammation
